Test results from patent US20210369681A1, “Identification of PPM1D mutations as a novel biomarker for NAMPTi sensitivity” (YALE UNIVERSITY, priority 2018, published 2021).

Assays:
SU-DIPG-XXXV = assay: DIPG spheroid viability (CytoTox-Glo), PPM1D mutant line; type: cell-based, human; settings: 120 hr treatment; spheroids
[1] = tested on: SU-DIPG-IV, XIII, and XVII (WT DIPG lines); assay: DIPG spheroid viability (CytoTox-Glo), SU-DIPG lines; type: cell-based, human
U2OS = U2OS cell viability; type: cell-based, human; settings: 96 hr treatment
Protocol: (§1) hTert/E6/E7 immortalized human astrocytes were acquired from the lab of Dr. Timothy Chan, and have been previously characterized. Unless noted otherwise, astrocytes were grown in DMEM, high glucose (ThermoFisher Scientific/Gibco) plus 10% FBS (Gibco) as adherent monolayers. U2OS cells were purchased from ATCC, and were grown in DMEM, high glucose plus 10% FBS. MCF7 cells were grown in RPMI1640 (ThermoFisher Scientific/Gibco) with the addition of 10% FBS.

[2] = tested on: PPM1Dtrnc. astrocyte xenografts; assay: PPM1Dtrnc. astrocyte cell line xenografts; type: in vivo, NOD scid gamma (NSG) mice; settings: 20 mg/kg BID i.p.
Protocol: (§2) Astrocyte xenograft studies were performed in NOD scid gamma (NSG, NOD.Cg-Prkdc^scidIl2rg^tm1Wj1/SzJ female mice 3-4 weeks old) mice. For cell line xenografts, 5×10^6 WT or PPM1D^trnc. astrocytes, stably expressing firefly luciferase (lentivirus-plasmids from Cellomics Technology; PLV-10003), were combined with Matrigel (Corning, 47743-722) in a total volume of 0.2 mL. Cell-Matrigel suspension was injected subcutaneously into both the right and left flanks of shaved NSG mice. Mice were randomly sorted into treatment groups, and tumor burden and growth were measured on a weekly basis, via BLI intensity, as described below. FK866 was solubilized in DMSO at a concentration of 80 mg/ml. Mice were then administered the drug intraperitoneally twice a day for 4 days, repeated weekly for 3 weeks at 20 mg/kg in 10% cyclodextrin. Treatment began after one month of growth. Tumors were harvested after completion of treatment, and mass for each tumor was measured. Serially transplanted xenografts were created via continuous transplantation of PPM1D^trnc. cell line xenografts in NSG mice. […] Mice were sorted randomly into treatment groups, and tumor volume was measured using standard caliper-based techniques. Tumor volume was calculated as length×width^2×0.52. […] Mice were sorted randomly into treatment groups, and tumor burden was assessed through caliper measurement and volume calculations. […]

[3] = tested on: parental and PPM1Dtrnc. immortalized human astrocytes; type: cell-based
Protocol: In vitro cellular viability assessments of immortalized human astrocytes, MCF7, and U2OS cell lines were made using a previously described, high-content, microscopy platform developed by our group. In brief, cells were plated in a 96-well plate at a density of 2000 cells/well, and incubated overnight. Drug treatment or vehicle (0.5% DMSO) control was administered, and cells were incubated for 72-96 hours as indicated. Plates were then washed with PBS and fixed with ice-cold 70% ethanol for 2 hours at 4° C. […] Cells were imaged using a Cytation3 imager (BioTek), and images were stitched and analyzed as described above. Viability assessments were made comparing drug treated to vehicle treated conditions. SU-DIPG and HSJD-DIPG-007 spheroid viability was assessed using CytoTox-Glo (Promega), according to the manufacturer's protocols. Spheroids were treated with FK866 for 120 hours before analysis using this method. IC50 calculations were made using GraphPad Prism, by fitting data to an [inhibitor] vs response−variable slope four parameter nonlinear regression (as depicted in the representative figures). siRNA Transfection and Viability Analysis Individual NAPRT targeting siRNAs were ordered from Dharmacon Inc. (Horizon Discovery), with target sequences listed in Table 1. The panel of siRNAs used for synthetic lethal viability screening was hand-selected and ordered from Dharmacon Inc. and were provided in ON-TARGET plus mixtures, each containing up to four unique siRNAs per gene. 2×10^5 astrocytes were reverse-transfected with different siRNAs (200 nM final concentration), using Lipofectamine RNAiMAX (Invitrogen), according to manufacturer's protocols. For individual siRNAs, cells were incubated for 72 hours, pelleted, and lyzed for immunoblotting. For the siRNA screen, cells were incubated for 24 hours and split to different condition plates, where they were incubated for an additional 24 hours. Cells were then treated with the described doses of FK866, and viability was assessed after 72 hours of drug treatment, using the image-based pipeline described above. Viability measurements were made for each siRNA, and normalized to FK866-untreated conditions.
Given the role of PPM1D in DDR pathways, we performed a small molecule synthetic lethal screen with a panel of inhibitors against key DNA repair and metabolic proteins, using methodology described previously by our group.

[4] = tested on: U2OS cell line xenografts; assay: U2OS cell line xenografts; type: in vivo, athymic nude mice
[5] = tested on: NAD and NADP levels in WT and PPM1Dtrnc. astrocytes; assay: NAD / NADP quantification in astrocytes; type: cell-based, human; settings: 10 nM FK866, 24 hrs
Protocol: The NAD metabolome was quantitatively analyzed using LC-MS/MS, using two separations on Hypercarb and 13C metabolite standards. Subsequent NAD level analyses were performed using a NAD/NADH Quantification kit (Sigma), as per the manufacturer's specifications. Me/hME-DIP, Bisulfite Conversion, and Global 5-hmC Detection Genomic DNA was purified using the Wizard Genomic DNA purification kit (Promega), and subsequently immunoprecipitated or bisulfite-converted. […] Immunoprecipitated DNA was extracted with phenol/chloroform and analyzed using quantitative PCR (qPCR), as described below. Bisulfite conversion was performed via EpiMark Bisulfite Conversion kit (NEB). Modified DNA was then amplified using EpiMark Hot Start Taq DNA polymerase (NEB), with primers listed in Table 1, and purified with a PCR purification kit (Qiagen). Methylation was then assessed through Sanger-sequencing of the NAPRT promoter. Global 5-hydroxymethylcytosine levels were assessed via the Global 5-hmC quantification kit (Active Motif), according to manufacturer's protocols. Quantitative PCR (qPCR) mRNA transcripts were purified from cells using a RNAeasy kit (Qiagen) and subsequently reverse transcribed using a High Capacity cDNA reverse transcription kit (Applied Biosystems). PPM1D and NAPRT gene expression levels were assessed through qPCR with TaqMan fluorescent probes (all from Applied Biosystems): PPM1D (4331182), NAPRT (4351372), and Actin (4333762F), according to manufacturer's protocol. Expression level fold change was calculated via ΔΔCt comparison, using Actin as a reference gene. The NAPRT promoter region was quantitated via qPCR using Fast Start Universal SYBR Green Master with ROX (Roche), and primers listed in Table 1. All qPCR reactions were run on a StepOnePlus Real Time PCR system (Applied Biosystems).

MCF7 = MCF7 cell viability; type: cell-based, human; settings: 96 hr treatment
Protocol: as §1

[6] = tested on: serially-transplanted PPM1D mutant astrocyte xenografts; assay: Serially-transplanted PPM1D mutant astrocyte xenografts; type: in vivo, NSG mice; settings: 20 mg/kg BID
Protocol: as §2

[7] = tested on: NAPRT expression in PPM1Dtrnc. cells; assay: NAPRT immunoblot after DNA demethylating agents; type: cell-based, human; settings: varying doses, 72 hrs
Protocol: PPM1D^trnc. astrocytes were treated with 50 µg/mL cycloheximide or 1 μM MG132 (both Sigma) for the indicated amount of time. Cells were then washed, pelleted, and lyzed for subsequent immunoblotting approaches, as described above. Quantification of immunoblot intensity was calculated using ImageJ software, and consisted of multiple (n=3) blots. Irradiation of cells was performed using an X-RAD KV irradiator (Precision X-ray), and treatment consisted of an unfractionated, 10 Gy dose. PPM1D inhibitor treatment with GSK2830371 (Selleckchem), consisted of 50 nM treatment, 24 hours prior to IR. FK866 (Selleckchem), GPP78 (Tocris Bioscience), STF118804 (Tocris Bioscience), STF31 (Tocris Bioscience), 5-azacytidine (Selleckchem), and Decitabine (Selleckchem) were dissolved in DMSO and used for treatment as indicated.

SMILES | Cytotoxic doses (SU-DIPG-XXXV) | Sensitivity to FK866 in media devoid of nicotinic acid ([1]; all SU-DIPG spheroid cultures tested, growth media devoid of nicotinic acid (NA)) | Response to FK866 treatment ([1]; three WT DIPG lines, 120 hr, NA-containing media) | Sensitivity to FK866 treatment (U2OS) | Lower final tumor mass, fold change ([2]; 3 cycles, versus vehicle alone) | Reduction in tumor burden (BLI), fold change ([2]; 4 days weekly for 3 weeks, after three weeks, vs vehicle) | IC50 ratio (Parental/PPM1Dtrnc.) [3] | Tumor volume, fold change ([4]; 20 mg/kg BID for 3 four day weekly cycles, vs vehicle) | Body mass difference between the treatment groups ([4]; all mice on study, throughout the dosing schedule (FIG. 13B)) | Decline of NAD and NADP compared with WT astrocytes ([5]; PPM1Dtrnc. cells) | Cellular pools of NAD and NADP ([5]; WT astrocytes) | Sensitivity to FK866 treatment (MCF7) | Reduced overall tumor size, fold change ([6]; 3 cycles of four days on, three days off, calipers and BLI, vs vehicle) | Tumor growth delay (Kaplan-Meier) ([6]; 3 cycles, compared to a vehicle control) | Reversal of NAPRT gene silencing [7]
O=C(/C=C/c1cccnc1)NCCCCC1CCN(C(=O)c2ccccc2)CC1 [FK866] | low, single-digit nanomolar range | strong sensitivity | resistant | strong sensitivity | 3.1 | 4.93 | 9746.59 | 5.86 | no significant differences | significantly greater | dropped markedly | strong sensitivity | 17.1 | significantly delayed | –
Nc1ncn([C@@H]2O[C@H](CO)[C@@H](O)[C@H]2O)c(=O)n1 [azacytidine] | – | – | – | – | – | – | – | – | – | – | – | – | – | – | failed to reverse
